In data set [1] the test system is alkaline phosphatase (AlkP) induction in Ishikawa cells. Put plainly: Estrogenic potency in Ishikawa cells: induction of AlkP. It is filed as cell-based, human. The settings on record: for Ishikawa Cell AlkP RSA (relative stimulatory activity): induction of AlkP, E2 = 100, ± S.D. The procedure: Estrogenic Potency in Ishikawa Cells. The estrogenic potency of the E2-analogs was determined in a estrogen bioassay, the induction of AlkP in human endometrial adenocarcinoma cells (Ishikawa) grown in 96-well microtiter plates as we have previously described.^28 In short, the cells are grown in phenol red free medium with estrogen depleted (charcoal stripped) bovine serum in the presence or absence of varying amounts of the steroids. […] After 3 days, the cells are washed, frozen and thawed, and then incubated with 5 mM p-nitrophenyl phosphate, a chromogenic substrate for the AlkP enzyme, at pH 9.8. To ensure linear enzymatic analysis, the plates are monitored kinetically for the for the production of p-nitrophenol at 405 nm. The relative stimulatory activity is determined by analysis of the curve fitting program Prism. Each compound was analyzed in at least 3 separate experiments performed in duplicate.

In data set [2] the target is T1, ER in rat uterine cytosol (ERα) (Rattus norvegicus, UniProt P06211).
T1 construct: The uterus was removed and homogenized in ice-cold TEGDMo buffer; from tissue; host or cells: uterine cytosol of castrated female Sprague Dawley rats
T1 sequence (P06211 1-600): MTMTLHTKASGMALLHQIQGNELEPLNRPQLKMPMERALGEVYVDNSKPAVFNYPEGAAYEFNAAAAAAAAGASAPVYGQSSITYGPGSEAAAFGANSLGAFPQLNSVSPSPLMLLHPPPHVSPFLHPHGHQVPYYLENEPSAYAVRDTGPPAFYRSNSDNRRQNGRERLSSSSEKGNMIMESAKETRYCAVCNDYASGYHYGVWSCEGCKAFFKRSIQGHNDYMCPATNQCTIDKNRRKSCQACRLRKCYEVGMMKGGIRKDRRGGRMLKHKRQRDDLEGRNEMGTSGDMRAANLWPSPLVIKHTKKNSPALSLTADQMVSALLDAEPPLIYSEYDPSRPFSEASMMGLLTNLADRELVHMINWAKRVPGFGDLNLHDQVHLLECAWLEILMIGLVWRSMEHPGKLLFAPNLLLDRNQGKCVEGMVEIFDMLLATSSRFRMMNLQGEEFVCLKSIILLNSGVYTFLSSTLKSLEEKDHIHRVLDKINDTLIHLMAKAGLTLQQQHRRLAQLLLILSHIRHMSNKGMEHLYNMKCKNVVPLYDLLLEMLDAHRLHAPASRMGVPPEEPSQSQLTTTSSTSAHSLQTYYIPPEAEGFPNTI
Put plainly: Competitive binding to the ER in rat uterine cytosol (RBA vs [3H]E2). The settings on record: for ER RBA (relative binding affinity): rat uterine estrogen receptor assay, E2 = 100, ± S.D.; for binding to the ER / RBA: uterine cytosol (ERα); for RBA: relative to E2. The procedure: Competitive Binding to the Estrogen Receptor ERα and ERβ. […] The ER in uterine cytosol is ERα the classical form of the ER.^38 Female Sprague Dawley rats were castrated and sacrificed 24 h later. The uterus was removed and homogenized in ice-cold TEGDMo buffer (10 mM Tris, 1.5 mM Na2-EDTA, 10% (v/v) glycerol, 1.0 mM dithiothreitol, 25 mM sodium molybdate, pH 7.4 at 4° C.). and centrifuged at 105,000 g for 45 min at 4° C. The supernatant (cytosol) was frozen on dry ice and stored at −80° C. until assay. […] Incubations were carried out on ice overnight and bound radioactivity was separated from free by adsorption with dextran coated charcoal and quantified by counting.^26 Relative Binding Affinity (RBA) was determined by analysis of the displacement curves by the curve-fitting program Prism (Graph-Pad Software inc., San Diego, Calif.). The results shown in Table 1. below, are from at least 3 separate experiments performed in duplicate.

Data set [3] concerns esterase(s) in rat hepatic microsomes. The experiment in a line: Esterase assay with rat hepatic microsomes. It is filed as in vitro ADME. The settings on record: rat hepatic microsomes, E16-1,2 = 100; ± S.D. How it is done:
Esterase. Esterase activity was measured in rat hepatic microsomes essentially using the conditions described.^39 Liver obtained from Sprague-Dawley rats was washed with phosphate buffered saline and homogenized in 3 volumes of cold 0.25 M sucrose and centrifuged at 700 g for 10 min and then at 10,000 g for 20 min. The resulting supernatant was centrifuged at 105,000 g for 60 min. The pellet was suspended in 0.1 M phosphate buffer pH 7.4 and washed by centrifugation at 105,000 g for 60 min. The washed pellet was suspended in 0.1 M Tris-HCl pH 8.0 at a concentration of ˜13 mg protein/ml and frozen at −80° C. For assay, the pellets were thawed and diluted with the same buffer. The incubation mixture consisted of the microsomal enzyme preparation, 0.28 mg protein/ml, E2-16α-alkyl esters, 50 μM, added in 10 μL of ethanol, all in a final volume of 1 mL of Tris buffer pH 8.0. Since the rates of reaction are widely different for the various esters, the incubation times were varied accordingly to obtain linear kinetics. At several appropriate time points, 100 μL aliquots were withdrawn and the reaction was quenched with 33 μL CH3CN, followed by a 33 μL of a solution of THF containing 1 […] of the internal standard, 6-ketoestradiol. The quenched aliquot was centrifuged for several minutes on bench-top centrifuge and 80 μl of the supernatant was analyzed for the esterase-hydrolysis product (the corresponding E2-16α-carboxylic acid: E16-1,0 8; E16-2,0 23; E16-3,0 35) by reversed phase HPLC with system H-10 for E2-16-1 and E2-16-2 esters, and with system H-15 for E2-16-3 esters. The E2-16α-carboxyl products, (Rt for E16-1,0 8=7 min and for E16-2,0 23=9 min, E16-3,0 35=6.5 min) and the internal standard, 6-ketoestradiol (Rt 7.5 min in system H-10, and 5 min in system H-15) were quantified at 280 nm on the HPLC UV detector. The UV absorbance was converted to moles of product by comparison to standard curves and corrected for recovery of the internal standard, 6-ketoestradiol. The velocity of the reaction for each ester, in nmol product/min/ml/ was then normalized to the ester, E16-1,2 10 and is shown in Table 1 as relative hydrolytic activity (RHA). The enzymatic velocity for the hydrolysis of E16-1,2 10 was 0.9±0.2 (S.D.) nmol product/min/ml over the various experiments. Since all of the esters could not be tested simultaneously, in each case we compared the rate of hydrolysis of the test compound to that of E16-1,2 10 run concurrently. All compounds were tested in triplicate in 3 separate experiments.

Another data set has as its system human ERβ and ERα. Put plainly: Competitive binding to human ERβ and ERα expressed in Escherichia coli lysates (ratio of RBAs). The settings on record: RBAs (E2 = 100) in E. coli lysates expressing human ERβ and ERα separately.

Where “and” joins values, the source holds several entries; their conditions need not be identical. Equal values may be shown once. Where a name gives a salt, the structure may show the parent alone.

In the case of `C[C@]12CC[C@@H]3c4ccc(O)cc4CC[C@H]3[C@@H]1CCC2=O` [Compound E1, estrone, reference compound], the “RSA (estrogenic potency compared to E2)” value in data set [1] (Ishikawa AlkP) is on record as 7%. Moreover, in data set [1], the “Ishikawa Cell AlkP RSA (relative stimulatory activity)” value came to 7 ± 2.
On to `C[C@]12CC[C@@H]3c4ccc(O)cc4CC[C@H]3[C@@H]1C[C@@H](C(=O)O)[C@@H]2O` [E16-1,0, 3,17β-dihydroxyestra-1,3,5(10)-trien-16α-carboxylic acid], for which, in data set [2], the “ER RBA (relative binding affinity)” value stood at 0; the “binding to the ER” value was “None of the parent carboxylic acid analogs, E16-1,0, E16-2,0 and E16-3,0 showed significant binding”. The “Ishikawa Cell AlkP RSA (relative stimulatory activity)” value in data set [1] is 0.
Turning to `C[C@]12CC[C@@H]3c4ccc(O)cc4CC[C@H]3[C@@H]1C[C@@H](C(=O)OCC(F)F)[C@@H]2O` [E16-1,2F2, 2′,2′-Difluoroethyl (3,17β-dihydroxyestra-1,3,5(10)-trien-16α-yl) formate], in data set [2], the “ER RBA (relative binding affinity)” value worked out at 10 ± 3 and the RBA stood at 10%. The “Esterase RHA (relative hydrolytic activity)” value in data set [3] is 2,350 ± 275. Further, the “Ishikawa Cell AlkP RSA (relative stimulatory activity)” value in data set [1] is recorded as 4 ± 1. In addition, the “ERα/ERβ (ratio of the RBAs)” value in the data set on human ERβ and ERα is on record as 1,800.
Regarding `C[C@]12CC[C@@H]3c4ccc(O)cc4CC[C@H]3[C@@H]1C[C@@H](C(=O)OCC(F)(F)F)[C@@H]2O` [E16-1,2F3, 2′,2′,2′-Trifluoroethyl (3,17β-dihydroxyestra-1,3,5(10)-trien-16α-yl) formate], in data set [2], the “ER RBA (relative binding affinity)” value amounted to 7 ± 1 and the RBA was determined as 7%. The “Esterase RHA (relative hydrolytic activity)” value in data set [3] was 8,200 ± 1,800. The “Ishikawa Cell AlkP RSA (relative stimulatory activity)” value in data set [1] was determined as 3 ± 1.
Regarding `CCCOC(=O)[C@@H]1C[C@H]2[C@@H]3CCc4cc(O)ccc4[C@H]3CC[C@]2(C)[C@H]1O` [E16-1,3, Propyl (3,17β-dihydroxyestra-1,3,5(10)-trien-16α-yl) formate], in data set [2], the “ER RBA (relative binding affinity)” value stood at 34 ± 9. For the same compound, in data set [3], the “Esterase RHA (relative hydrolytic activity)” value is 230 and 230 ± 50. Also, in data set [1], the “Ishikawa Cell AlkP RSA (relative stimulatory activity)” value was determined as 2 ± 0.
For `CC(C)OC(=O)[C@@H]1C[C@H]2[C@@H]3CCc4cc(O)ccc4[C@H]3CC[C@]2(C)[C@H]1O` [E16-1,3i, Isopropyl (3,17β-dihydroxyestra-1,3,5(10)-trien-16α-yl) formate], in data set [2], the “ER RBA (relative binding affinity)” value worked out at 7 ± 4 and the RBA was determined as 7%. Also, in data set [3], the “Esterase RHA (relative hydrolytic activity)” value is 140 and 140 ± 10. Further, the “Ishikawa Cell AlkP RSA (relative stimulatory activity)” value in data set [1] turned out to be 0.1 ± 0.06.
Take `CCCCOC(=O)[C@@H]1C[C@H]2[C@@H]3CCc4cc(O)ccc4[C@H]3CC[C@]2(C)[C@H]1O` [E16-1,4, n-Butyl (3,17β-dihydroxyestra-1,3,5(10)-trien-16α-yl) formate]: in data set [2], the “ER RBA (relative binding affinity)” value is listed as 28 ± 17 and the RBA amounted to 28%. The “Esterase RHA (relative hydrolytic activity)” value in data set [3] was 350 ± 50. Besides, in data set [1], the “Ishikawa Cell AlkP RSA (relative stimulatory activity)” value is 1 ± 0.
As for `CC(C)(C)COC(=O)[C@@H]1C[C@H]2[C@@H]3CCc4cc(O)ccc4[C@H]3CC[C@]2(C)[C@H]1O` [E16-1,5neo], in data set [2], the “ER RBA (relative binding affinity)” value stood at 14 ± 3 and the RBA is 7%. Also, the “Esterase RHA (relative hydrolytic activity)” value in data set [3] is 50 and 50 ± 5. For the same compound, the “Ishikawa Cell AlkP RSA (relative stimulatory activity)” value in data set [1] was found to be 1 ± 0.6.
As for `C[C@]12CC[C@@H]3c4ccc(O)cc4CC[C@H]3[C@@H]1C[C@@H](CC(=O)O)[C@@H]2O` [E16-2,0, 3,17β-Dihydroxyestra-1,3,5(10)-trien-16α-yl acetic acid], in data set [2], the “ER RBA (relative binding affinity)” value is 0; the “binding to the ER” value was “None of the parent carboxylic acid analogs, E16-1,0, E16-2,0 and E16-3,0 showed significant binding”. Also, the “Ishikawa Cell AlkP RSA (relative stimulatory activity)” value in data set [1] stood at 0.
As for `COC(=O)C[C@@H]1C[C@H]2[C@@H]3CCc4cc(O)ccc4[C@H]3CC[C@]2(C)[C@H]1O` [E16-2,1, Methyl 3,17β-dihydroxyestra-1,3,5(10)-trien-16α-yl acetate], in data set [2], the “ER RBA (relative binding affinity)” value turned out to be 5 ± 2 and the RBA is reported as 5%. The “Esterase RHA (relative hydrolytic activity)” value in data set [3] came out at 340 ± 30. Moreover, the “Ishikawa Cell AlkP RSA (relative stimulatory activity)” value in data set [1] is 0.5 ± 0.1.
The matching figures for `CCOC(=O)C[C@@H]1C[C@H]2[C@@H]3CCc4cc(O)ccc4[C@H]3CC[C@]2(C)[C@H]1O` [E16-2,2, Ethyl (3,17β-dihydroxyestra-1,3,5(10)-trien-16α-yl) acetate]: 5 ± 1, 5%, 700 ± 120 and 0.3 ± 0.1.
As for `C[C@]12CC[C@@H]3c4ccc(O)cc4CC[C@H]3[C@@H]1C[C@@H](CCC(=O)O)[C@@H]2O` [E16-3,0, 3-(3,17β-dihydroxyestra-1,3,5(10)-trien-16α-yl)propanioc acid], in data set [2], the “ER RBA (relative binding affinity)” value turned out to be 0.1 ± 0.1; the “binding to the ER” value is “None of the parent carboxylic acid analogs, E16-1,0, E16-2,0 and E16-3,0 showed significant binding”. In data set [1], the “Ishikawa Cell AlkP RSA (relative stimulatory activity)” value stood at 0.
Regarding `COC(=O)CC[C@@H]1C[C@H]2[C@@H]3CCc4cc(O)ccc4[C@H]3CC[C@]2(C)[C@H]1O` [E16-3,1, Methyl 3-(3,17β-dihydroxyestra-1,3,5(10)-trien-16α-yl)propanoate], in data set [2], the “ER RBA (relative binding affinity)” value is 1 ± 1 and the RBA was determined as 1%. Further, the “Esterase RHA (relative hydrolytic activity)” value in data set [3] is on record as 910 ± 100. Further, the “Ishikawa Cell AlkP RSA (relative stimulatory activity)” value in data set [1] was 0.
